We go through two molecules from US8344159B2, “Carvedilol phosphate sesquihydrate” (priority 2006, dated 2013).

Molecules are shown by their SMILES. Like-named read-outs stand apart in the source and are kept apart here.

Series [1] is described as follows: solubility compared to carvedilol base.
The nature of series [2]: stability compared to carvedilol base. The following applies: color of final product, phosphate sesquihydrate. The class given is physicochemical.
The conditions of series [3]: compared to the free base of carvedilol; disclosed in WO 2004/002419; cited from earlier work.

Consider `COc1ccccc1OCCNCC(O)COc1cccc2[nH]c3ccccc3c12.O=P(O)(O)O` (stereo not drawn) [carvedilol dihydrogen phosphate sesquihydrate], for which the solubility entry in series [1] is “Better solubility as compared to carvedilol base”. Moreover, the stability result in series [2] is “More stable as compared to carvedilol base”.

For the molecule `COc1ccccc1OCCNCC(O)COc1cccc2[nH]c3ccccc3c12.O=P(O)(O)O` (stereo not drawn) [carvedilol dihydrogen phosphate, Carvedilol dihydrogen phosphate], the solubility entry in series [3] was “higher solubility when compared to the free base of carvedilol”.
